How the values were obtained:
Type in all cases: cell-based
[1] = target: T1, ERα (Homo sapiens, UniProt P03372); assay: Degradation of ERα in MCF-7 cells (immunoblotting, 4 h)
T1 sequence (P03372 1-595): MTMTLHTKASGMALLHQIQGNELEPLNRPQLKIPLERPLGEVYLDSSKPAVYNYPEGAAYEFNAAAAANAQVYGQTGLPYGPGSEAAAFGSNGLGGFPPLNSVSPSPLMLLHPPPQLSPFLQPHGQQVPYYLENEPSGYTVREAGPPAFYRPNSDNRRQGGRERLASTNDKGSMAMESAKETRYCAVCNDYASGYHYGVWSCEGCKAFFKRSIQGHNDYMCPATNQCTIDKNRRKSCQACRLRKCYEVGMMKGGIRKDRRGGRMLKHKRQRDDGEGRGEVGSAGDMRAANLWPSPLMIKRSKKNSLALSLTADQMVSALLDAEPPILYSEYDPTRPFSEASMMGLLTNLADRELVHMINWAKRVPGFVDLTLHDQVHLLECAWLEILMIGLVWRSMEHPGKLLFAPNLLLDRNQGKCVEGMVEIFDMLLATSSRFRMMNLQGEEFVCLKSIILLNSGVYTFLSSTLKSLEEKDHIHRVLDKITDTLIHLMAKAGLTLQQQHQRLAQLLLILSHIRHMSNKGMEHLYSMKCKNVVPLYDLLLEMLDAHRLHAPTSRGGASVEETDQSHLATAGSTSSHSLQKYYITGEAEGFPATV
Procedure, shortened: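 MCF-7 cells treated 4 h at 37°C with compounds at 0.15-1000nM final. ERα in lysates measured by immunoblot, with band grayscale normalized to an internal reference protein. Degradation rate calculated against DMSO-treated control.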

[2] = test system: MCF-7 cells; assay: Inhibition of cell proliferation of MCF-7 cells (CCK-8, 9 days); conditions: treated for 9 days, CCK-8 kit (Table 6)
Procedure, shortened: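 MCF-7 cells seeded at 800 cells/well in DMEM with 10% FBS, exposed to a range of compound concentrations for 9 days at 37°C, 5% CO2. Viability read by CCK-8; IC50 derived for proliferation inhibition.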

[3] = target: T1, ERα; assay: Degradation of ERα in T-47D cells (immunoblotting, 4 h); design: host or cells: T-47D
Procedure, shortened: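 T-47D cells were treated with compound (final 0.15-1000 nM, DMSO) for 4 h at 37°C, 5% CO2. Cells were lysed in RIPA buffer with protease inhibitor, and ERα protein in the cleared lysate was measured by immunoblotting.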

SMILES | Degradation rate (%) of ERα in MCF-7 cells ([1]; 1nM compound) | Degradation rate (%) of ERα in MCF-7 cells ([1]; 10nM compound) | IC50 [2] | Degradation rate (%) of ERα in T-47D cells ([3]; 1nM compound) | Degradation rate (%) of ERα in T-47D cells ([3]; 10nM compound)
O=C1CCC(N2Cc3c(ccc4c3OCC43CCN(C(=O)[C@H]4CC[C@H](OC5CCN(c6ccc([C@@H]7c8ccc(O)cc8CC[C@@H]7c7ccccc7)cc6)CC5)CC4)CC3)C2=O)C(=O)N1 (some centres unmarked) [D8] | 9% | 62% | 11400 nM | 33% | 75%
C[C@@H]1Cc2c([nH]c3ccccc23)[C@@H](c2c(F)cc(N3CCC(C(=O)N4CCC(N5CCC6(CC5)COc5c6ccc6c5CN(C5CCC(=O)NC5=O)C6=O)[C@H](F)C4)CC3)cc2F)N1CC(F)F (some centres unmarked) [D9] | 22% | 55% | 10.8 nM | 52% | 82%
C[C@@H]1Cc2c([nH]c3ccccc23)[C@@H](c2c(F)cc(N3CCC4(CC3)CC(N3CC[C@@H](N5CCC6(CC5)COc5c6ccc6c5CN(C5CCC(=O)NC5=O)C6=O)[C@@H](F)C3)C4)cc2F)N1CC(F)F (some centres unmarked) [D10] | 3% | 58% | 12.5 nM | 24% | 77%
C[C@@H]1Cc2c([nH]c3ccccc23)[C@@H](c2c(F)cc(N3CCC(N4CC[C@@H](N5CCC6(CC5)COc5c6ccc6c5CN(C5CCC(=O)NC5=O)C6=O)[C@@H](F)C4)CC3)cc2F)N1CC(F)F (some centres unmarked) [D11] | 6% | 66% | 19.2 nM | 52% | 82%
CN(C[C@H]1CC[C@H](C(=O)N2CCC3(CC2)COc2c3ccc3c2CN(C2CCC(=O)NC2=O)C3=O)CC1)[C@H]1CCN(c2ccc([C@@H]3c4ccc(O)cc4CC[C@@H]3c3ccccc3)cc2)C[C@H]1F (some centres unmarked) [D13] | 42% | 68% | 186 nM | 54% | 82%
O=C1CCC(N2Cc3c(ccc4c3OCC43CCN(C(=O)C4CCN(CC5(F)CCN(c6ccc([C@@H]7c8ccc(O)cc8CC[C@@H]7c7ccccc7)cc6)CC5)CC4)CC3)C2=O)C(=O)N1 (some centres unmarked) [E1] | 39% | 75% | 12.6 nM | 57% | 82%
C[C@@H]1Cc2cc(O)ccc2C(c2c(F)cc(N3CCC4(CCN(CC(=O)N5CCC6(CC5)COc5c6ccc6c5CN(C5CCC(=O)NC5=O)C6=O)CC4)CC3)cc2F)N1CC(F)F (some centres unmarked) [F4] | 64% | 63% | 0.103 nM | 62% | 79%
C[C@@H]1Cc2cc(O)ccc2C(c2c(F)cc(N3CCC4(CCN(CC(=O)N5CCC6(CC5)COc5c6ccc6c5CN(C5CCC(=O)NC5=O)C6=O)C4)CC3)cc2F)N1CC(F)F (some centres unmarked) [F8] | 63% | 63% | 203 nM | 61% | 68%
C[C@@H]1Cc2cc(O)ccc2C(c2c(F)cc(N3CCC(N4CCC(C(=O)N5CCC6(CC5)COc5c6ccc6c5CN(C5CCC(=O)NC5=O)C6=O)CC4)CC3)cc2F)N1CC(F)F (some centres unmarked) [F9] | 46% | 45% | 4360 nM | 42% | 38%
C[C@@H]1Cc2cc(O)ccc2C(c2c(F)cc(N3CCC(C(=O)N4CCC(N5CCC6(CC5)COc5c6ccc6c5CN(C5CCC(=O)NC5=O)C6=O)[C@H](F)C4)CC3)cc2F)N1CC(F)F (some centres unmarked) [F10] | 53% | 43% | 3.81 nM | 59% | 65%

More lines, now with the values ahead:

Degradation rate (%) of ERα in MCF-7 cells ([1]; 1nM compound) | Degradation rate (%) of ERα in MCF-7 cells ([1]; 10nM compound) | IC50 [2] | Degradation rate (%) of ERα in T-47D cells ([3]; 1nM compound) | Degradation rate (%) of ERα in T-47D cells ([3]; 10nM compound) | SMILES
25% | 35% | 4.13 nM | 22% | 53% | O=C1CCC(N2Cc3c(ccc4c3OCC43CCN(C4CCN(CC5CCN(c6ccc([C@@H]7c8ccc(O)cc8CC[C@@H]7c7ccccc7)cc6)CC5)CC4)CC3)C2=O)C(=O)N1 (some centres unmarked) [G1]
29% | 73% | 749 nM | 45% | 81% | O=C1CCC(N2Cc3c(ccc4c3OCC43CCN(C4CC5(CCN(C6CC7(CCN(c8ccc([C@@H]9c%10ccc(O)cc%10CC[C@@H]9c9ccccc9)cc8)CC7)C6)CC5)C4)CC3)C2=O)C(=O)N1 (some centres unmarked) [G8]
45% | 66% | 18.2 nM | 62% | 85% | O=C1CCC(N2Cc3c(ccc4c3OCC43CCN(C4CC5CCC(C4)N5C(=O)C4CCN(c5ccc([C@@H]6c7ccc(O)cc7CC[C@@H]6c6ccccc6)cc5)CC4)CC3)C2=O)C(=O)N1 (some centres unmarked) [G10]
38% | 56% | 890 nM | 55% | 80% | C[C@H]1C[C@@H](N2CCC3(CC2)COc2c3ccc3c2CN(C2CCC(=O)NC2=O)C3=O)CCN1C(=O)C1CCN(c2ccc([C@@H]3c4ccc(O)cc4CC[C@@H]3c3ccccc3)cc2)CC1 (some centres unmarked) [G11]
24% | 57% | 9.27 nM | 47% | 81% | O=C1CCC(N2Cc3c(ccc4c3OCC43CCN(C4CCN(C(=O)C5CCN(c6ccc(C7c8ccc(O)cc8CCC7c7ccccc7)cc6)CC5)CC4F)CC3)C2=O)C(=O)N1 (centres unmarked) [G12]
30% | 71% | 6.82 nM | 43% | 80% | O=C1CCC(N2Cc3c(ccc4c3OCC43CCN(C4CCN(C5CCN(c6ccc(C7c8ccc(O)cc8CCC7c7ccccc7)cc6)CC5)CC4F)CC3)C2=O)C(=O)N1 (centres unmarked) [G13]
-19% | 20% | 10.2 nM | 39% | 72% | O=C1CCC(N2Cc3c(ccc4c3OC3(CC4)CCN(C4CCN(C(=O)C5CCN(c6ccc([C@@H]7c8ccc(O)cc8CC[C@@H]7c7ccccc7)cc6)CC5)CC4)CC3)C2=O)C(=O)N1 (some centres unmarked) [G15]
54% | 70% | 3.07 nM | 68% | 81% | O=C1CCC(N2Cc3c(ccc4c3OCC43CCN(C(=O)C4CCC(CN5CCN(c6ccc(C7c8ccc(O)cc8CCC7c7ccccc7)cc6)CC5)CC4)CC3)C2=O)C(=O)N1 (centres unmarked) [G16]
63% | 77% | 129 nM | 49% | 78% | O=C1CCC(N2Cc3c(ccc4c3OCC43CCN(C[C@H]4CC[C@H](C(=O)N5CCN(c6ccc([C@@H]7c8ccc(O)cc8CC[C@@H]7c7ccccc7)cc6)CC5)CC4)CC3)C2=O)C(=O)N1 (some centres unmarked) [G18]
22% | 45% | 49.7 nM | 51% | 69% | C[C@@H]1Cc2c(ccc3[nH]ncc23)C(c2c(F)cc(N3CCC4(CCC(N5CCC6(CC5)COc5c6ccc6c5CN(C5CCC(=O)NC5=O)C6=O)CC4)CC3)cc2F)N1CC(F)F (some centres unmarked) [G20]
50% | 65% | 5.08 nM | 34% | 63% | CC1Cc2c(ccc3[nH]ncc23)C(c2c(F)cc(N3CCC4(CC3)CC(N3CCC(N5CCC6(CC5)COc5c6ccc6c5CN(C5CCC(=O)NC5=O)C6=O)C(F)C3)C4)cc2F)N1CC(F)F (centres unmarked) [G22]
1% | 43% | 445 nM | 28% | 62% | O=C1CCC(N2Cc3c(ccc4c3OCC43CCN(C(=O)C45CCC(CN6CCN(c7ccc([C@@H]8c9ccc(O)cc9CC[C@@H]8c8ccccc8)cc7)CC6)(CC4)CC5)CC3)C2=O)C(=O)N1 (some centres unmarked) [G23]
